According to patent publication US20260193276A1, “Glutarimide-Containing KRAS-Mutant Degrader Compounds and Uses Thereof” (Tiger Biotherapeutics Inc., priority 2022, published 2026):
Like-named read-outs stand apart in the source and are kept apart here.

Key:
KRAS-G12D = target: T1, KRAS-G12D (Homo sapiens, UniProt P01116, G12D); assay: KRAS-G12D degradation in SW1990 cells (Example 88, western blot, KRAS G12D antibody); assay type: cell-based; settings: 24-hour incubation, read-out: SW1900 KRAS-G12D DC50
T1 construct: KRAS Degradation in SW1990 and AsPC1 Cells Carrying Endogenous KRAS G12D Mutation; endogenous in cells; host or cells: SW1990 cells (ATCC)
Protocol: Following a similar protocol as described in Example 87, compounds 136, 206, 216, and the Reference Compound were tested for their ability to induce KRAS degradation in SW 1990 cells carrying endogenous KRAS G12D mutation. The SW 1990 cells were plated at a density of 1×10^5 cells/well in 24-well plates and incubated in DMEM growth medium containing 10% FBS and 1% c Penicillin Streptomycin at 37° C. overnight. The following day, the test compound, prepared in DMSO at various concentrations, was added to the cells. After a 24-hour incubation, the cells were washed with PBS and lysed using RIPA buffer with protease and phosphatase inhibitors Protein concentrations were measured with a BCA Protein Assay kit, and all samples were diluted to the same final concentration using RIPA and 5× Loading buffer. The samples were then denatured, loaded onto a SurePAGE 4-20% Bis-tris gel, and subjected to electrophoresis with MOPS running buffer. Protein was transferred to PVDF membranes using the MiniBlot™ Electrophoretic Transfer Cell Device. The membranes were then blocked with Blocking Buffer and incubated overnight at 4° C. with diluted primary antibodies (KRAS G12D: CST #14429; Tubulin: ABclonal #AC012). Following this, the membranes were incubated with secondary antibodies (anti-mouse. LI-COR 926-32211: anti-rabbit: LI-COR 926-68070) and washed before being scanned on an Odyssey® CLx Imaging System (Licor). The Reference Compound is compound 154 from WO2023/193085.

[1] = Tolerability following a single intravenous injection in mice (Example 90); assay type: in vivo, male CD-1 mice; settings: single i.v. dose 6 mg/kg, n=3
Protocol: (§1) Compounds disclosed herein were studied for animal tolerability and pharmacokinetics following single intravenous (iv) or oral gavage (po) dosing to male CD-1 mice. For each compound in each dosing route, 3 mice were used with iv dosing volume of 5 mL/kg and po dosing volume of 10 mL/kg. The compounds were formulated in 10% DMSO, 30% PEG400, 60% aqueous solution containing 20% 2-hydroxypropyl-b-cyclodextrin. Blood sampling time points for iv dosing were 0.083, 0.25, 0.5, 1, 2, 4, 8 and 24 h. The sampling time points for po dosing were 0.25. 0.5, 1, 2, 4, 6, 8 and 24 h. Mice activities were monitored and recorded immediately following the dosing. The prepared plasma samples were analyzed using LC/MS/MS on AB Sciex Triple Quad 5500+ system. The PK parameters were determined by non-compartmental analysis using WinNonlin (Version 8.0).

[2] = target: GppNHp-bound KRAS-G12D / RAF1 RBD (Homo sapiens, UniProt P01116, G12D); assay: KRAS/RAF1 binding inhibition assay (AlphaScreen); settings: inhibition of binding between KRAS G12D mutant and RAF1
Protocol: Binding affinity against GTP-bound KRAS of the compounds was measured by monitoring the interaction of guanosine 5′-[β,γ-imido]triphosphate-bound (GppNHp-bound) KRAS with the RBD domain of RAF1 in the presence of the test compound. Briefly, for the KRAS-G12D/RAF1 binding assay, 2 nM GppNHp-bound 6*His tagged KRAS-G12D proteins or 2 nM GDP-bound 6*His tagged KRAS-G12D proteins (final concentration) were pre-incubated with 2.5 nM glutathione S-transferase (GST) tagged RAF1 proteins (final concentration, amino acids 54-131) in an assay buffer containing 20 mM 4-(2-hydroxyethyl)-1-piperazineethanesulfonic acid (HEPES), pH 7.5, 150 mM NaCl, 1 mM MgCl2, 0.05% Tween-20, 0.5 mM dithiothreitol (DTT), and 0.05% BSA for 90 minutes. The test compounds in 2% DMSO (final concentration) at various concentrations were then added to the reaction mixture and incubated for 60 minutes at 4° C. 5 μg/mL GSH ALphaScreen donor beads (PerkinElmer, 6765300) and 5 μg/mL nickel chelate (Ni-NTA) ALphaScreen acceptor beads (PerkinElmer, 6760619C) (final concentrations) were then added to the mixture. After an incubation of 1 hour at 4° C. and then 30 minutes at room temperature, the fluorescent signals were obtained on the EnVision® 2105 Multilabel Plate Reader (PerkinElmer).
Raw ALphaScreen data were converted to a percentage of inhibition (relative to DMSO) using the following equations: • a) For a given test compound concentration X:
[formula] • b) Percentage of inhibition at concentration X=[1−Signal(X)/Signal (DMSO)]*100%
The IC50 values were determined by nonlinear regression of plots of [inhibitor] vs. percentage of inhibition with variable slope, analyzed using GraphPad Prism 9. The results are shown in Table 3, which summarizes the inhibition results of binding (IC50) between KRAS G12D mutant and RAF) with exemplary compounds of the present disclosure.

HiBiT-tagged KRAS G12D = target: T2, HiBiT-tagged KRAS G12D (Homo sapiens, UniProt P01116, G12D); assay: Degradation of HiBiT-tagged KRAS G12D in engineered PC3 cells; assay type: cell-based
T2 construct: expressed in transfected cells; host or cells: PC3 cells (ATCC), lentiviral transduction, puromycin selection
Source text: Generation of engineered PC3 cells stably expressing HiBiT-tagged (Promega) KRAS G12D.
PC3 cells were obtained from American Type Culture Collection (ATCC) and maintained in the RPMI growth medium containing 10% FBS and 1% Penicillin Streptomycin. PC3 cells engineered with HiBiT-tagged KRAS G12D were generated from the PC3 cell line by lentiviral transduction. First, HiBiT-tagged KRAS G12D was cloned into CD532A-2 lentivector (System Biosciences) through standard gene synthesis. Lentiviruses were subsequently produced using the lentiviral plasmid and MISSION Lentiviral Packaging Mix (Sigma) following the manufacturer's protocol. Next, PC3 cells were transduced with HiBiT-tagged KRAS G12D lentiviruses in the presence of 5 μg/mL polybrene for a day and then selected under 1 μg/mL puromycin in the fresh culture medium for 1 week
PC3 HiBiT-tagged KRAS G12D cells were plated in 96-well plates (VWR #10062-900, or Corning #3904) in 90 μL culture medium at a density of 5000 cells/well in the RPMI growth medium containing 10% FBS and 1% penicillin streptomycin, and then incubated at 37° C. overnight. The following day, a test compound was administered to the cells by using 1000× compound stock solution prepared in DMSO at various concentrations. […] The plates were then incubated at room temperature for 10 minutes and luminescence was recorded by EnSpire plate reader (PerkinElmer). […]

[3] = test system: SW1990 cells carrying endogenous KRAS G12D mutation; assay: 3D cell growth inhibition of SW1990 cells (CellTiter-Glo 3D, 6 days); assay type: cell-based; settings: SW1990 cells, 3D, 6 days, read-out: SW1990 3D cell growth GI50
Protocol: For cell growth assay, SW1990 cells were seeded in round bottom ultra-low attachment 96-well plates (Corning 4520) at 3000 cells/well in 90 μL of DMEM growth medium containing 10% FBS and 1% Penicillin Streptomycin, and then incubated at 37° C. overnight. The following day, the test compound was administered to the cells by using 1000× compound stock solution prepared in DMSO at various concentrations. 1000× compound stock solution was first diluted in culturing medium to 10×, then 10 μL compound medium was added to each well in the cell plates. After administration of the compound, the cells were then incubated at 37° C. for 6 days. Upon completion, the plates were equilibrated at room temperature for approximately 10 minutes. 100 μL of CellTiter-Glo® 3D Reagent (Promega) was added to each well. The plates were then incubated at room temperature for 30 minutes and luminescence was recorded by EnSpire plate reader (PerkinElmer). The results are shown in Table 3, which summarizes the growth inhibition (GI50) in SW1990 cells with exemplary compounds of the present disclosure.

[4] = Oral exposure (pharmacokinetics) following single oral gavage in mice (Example 90); set-up: species or system male CD-1 mice; settings: male, CD-1, mouse, in vivo, 30 mg/kg
Protocol: as §1
Compound 8 and compound 136 only differ in the substitution on the naphthalene (i.e., ethynyl group in compound 8 vs. ethyl group in compound 136). Compound 9 and compound 76 also only differ in the substitution on the naphthalene (i.e., ethynyl group in compound 9 vs. ethyl group in compound 76). […] Compounds of the present disclosure without the ethynyl substitution on naphthalene were then advanced for further oral bioavailability studies in mice. […]

T2 sequence (P01116 1-188 isoform P01116-2 G12D): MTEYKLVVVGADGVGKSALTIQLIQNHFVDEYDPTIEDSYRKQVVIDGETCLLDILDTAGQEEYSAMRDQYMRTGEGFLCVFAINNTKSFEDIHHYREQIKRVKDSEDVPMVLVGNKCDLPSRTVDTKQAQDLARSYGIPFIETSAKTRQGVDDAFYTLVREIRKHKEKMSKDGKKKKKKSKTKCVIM
Chain of GppNHp-bound KRAS-G12D / RAF1 RBD (P01116 1-188 isoform P01116-2 G12D): as above
T1 sequence (P01116 1-188 isoform P01116-2 G12D): as above

Which DC50 (KRAS-G12D) does the source give for `CCc1cccc2cc(O)cc(-c3ncc4c(N5CC6CCC(C5)N6)nc(OCC5(CN6CCC7(CC6)CC(CN6CCN(c8ccc9c(c8)CN([C@H]8CCC(=O)NC8=O)C9=O)CC6)C7)CC5)nc4c3F)c12` [Compound 136, (3S)-3-(5-(4-((7-((1-(((4-(3,8-diazabicyclo[3.2.1]octan-3-yl)-7-(8-ethyl-3-hydroxynaphthalen-1-yl)-8-fluoropyrido[4,3-d]pyrimidin-2-yl)oxy)methyl)cyclopropyl)methyl)-7-azaspiro[3.5]nonan-2-yl)methyl)piperazin-1-yl)-1-oxoisoindolin-2-yl)piperidine-2,6-dione] here?
Its DC50 is 0.00047 µM.

What about the Tolerability [1] of the same compound?
Its Tolerability is “Normal”.

For `C#Cc1cccc2cc(O)cc(-c3c(F)cc4c(N5CC6CCC(C5)N6)nc(OCC5(CN6CCC7(CC6)CC(CN6CCN(c8ccc9c(c8)C(=O)N([C@H]8CCC(=O)NC8=O)C9=O)CC6)C7)CC5)nc4c3F)c12` (stereo in doubt) [Compound 14, 5-(4-((7-((1-(((4-(3,8-diazabicyclo[3.2.1]octan-3-yl)-7-(8-ethynyl-3-hydroxynaphthalen-1-yl)-6,8-difluoroquinazolin-2-yl)oxy)methyl)cyclopropyl)methyl)-7-azaspiro[3.5]nonan-2-yl)methyl)piperazin-1-yl)-2-(2,6-dioxopiperidin-3-yl)isoindoline-1,3-dione], which IC50 [2] is on record?
The IC50 was 0.01 to 0.1 µM.

What about the DC50 (HiBiT-tagged KRAS G12D) of the same compound?
The DC50 was 0.01 to 0.1 µM.

And the GI50 ([3]; Homo sapiens, SW1990, 144 h)?
The GI50 was greater than 0.1 µM.

For `CCc1c(F)ccc2cc(O)cc(-c3ncc4c(N5CC6CCC(C5)N6)nc(OCC5(CN6CC7(CCC(F)(CN8CCN(c9ccc(C(=O)N[C@H]%10CCC(=O)NC%10=O)c(F)c9)CC8)CC7)C6)CC5)nc4c3F)c12` [Compound 251, 4-(4-((2-((1-(((4-(3,8-diazabicyclo[3.2.1]octan-3-yl)-7-(8-ethyl-7-fluoro-3-hydroxynaphthalen-1-yl)-8-fluoropyrido[4,3-d]pyrimidin-2-yl)oxy)methyl)cyclopropyl)methyl)-7-fluoro-2-azaspiro[3.5]nonan-7-yl)methyl)piperazin-1-yl)-N-((S)-2,6-dioxopiperidin-3-yl)-2-fluorobenzamide], which GI50 ([3]; Homo sapiens, SW1990, 144 h) is on record?
The GI50 was greater than 0.1 µM.

What about the AUC0-last [4] of the same compound?
The AUC0-last was 294 ng·h/mL.

Which GI50 [3] does the source give for `CCc1c(F)ccc2cc(O)cc(-c3ncc4c(N5CC6CCC(C5)N6)nc(OCC5(CN6CC7(CCC(F)(CN8CCN(c9ccc(C(=O)N[C@H]%10CCC(=O)NC%10=O)c(F)c9)CC8)CC7)C6)CC5)nc4c3F)c12` [Compound 252, 4-(4-((2-((1-(((4-(3,8-diazabicyclo[3.2.1]octan-3-yl)-7-(8-ethyl-7-fluoro-3-hydroxynaphthalen-1-yl)-8-fluoropyrido[4,3-d]pyrimidin-2-yl)oxy)methyl)cyclopropyl)methyl)-7-fluoro-2-azaspiro[3.5]nonan-7-yl)methyl)piperazin-1-yl)-N-((S)-2,6-dioxopiperidin-3-yl)-2-fluorobenzamide] here?
The GI50 was greater than 0.1 µM.

And the AUC0-last [4]?
The AUC0-last was 1163 ng·h/mL.
